Counter-ions that a name gives are not always drawn. Like-named read-outs stand apart in the source and are kept apart here.
Tests used:
Type in all cases: biochemical
recombinant PRL-1 = target: T1, recombinant PRL-1 (Homo sapiens, UniProt Q93096); test: In vitro phosphatase assay (DiFMUP hydrolysis), PRL-1
T1 construct: 6xHis (N, cleaved yes); made in house; host or cells: E. coli One Shot BL21 Star
T1 sequence (Q93096 1-173): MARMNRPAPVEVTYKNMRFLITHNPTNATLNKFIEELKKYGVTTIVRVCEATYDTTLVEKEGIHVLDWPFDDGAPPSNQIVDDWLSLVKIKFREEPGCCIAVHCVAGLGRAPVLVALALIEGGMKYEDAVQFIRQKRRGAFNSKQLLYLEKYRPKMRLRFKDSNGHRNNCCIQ

recombinant PRL-2 = target: T2, recombinant PRL-2 (Homo sapiens, UniProt Q12974); test: In vitro phosphatase assay (DiFMUP hydrolysis), PRL-2;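 also: PRL-2 activity read as DiFMUP hydrolysis after 20 min at room temperature with drug, enzyme first pre-reduced at 4 °C for 20 min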
T2 construct: 6xHis (N, cleaved yes); made in house; host or cells: E. coli One Shot BL21 Star
T2 sequence (Q12974 1-167): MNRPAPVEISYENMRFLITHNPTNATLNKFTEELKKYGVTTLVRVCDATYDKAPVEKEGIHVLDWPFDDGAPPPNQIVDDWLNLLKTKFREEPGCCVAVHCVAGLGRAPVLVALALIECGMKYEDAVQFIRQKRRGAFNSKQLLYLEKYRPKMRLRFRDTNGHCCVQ

recombinant PRL-3 = target: T3, recombinant PRL-3 (Homo sapiens, UniProt O75365); test: In vitro phosphatase assay (DiFMUP hydrolysis), PRL-3
T3 construct: 6xHis (N, cleaved yes); made in house; host or cells: E. coli One Shot BL21 Star

[1] = FDA-approved drug screen, compared to DMSO

T3 sequence (O75365 whole entry): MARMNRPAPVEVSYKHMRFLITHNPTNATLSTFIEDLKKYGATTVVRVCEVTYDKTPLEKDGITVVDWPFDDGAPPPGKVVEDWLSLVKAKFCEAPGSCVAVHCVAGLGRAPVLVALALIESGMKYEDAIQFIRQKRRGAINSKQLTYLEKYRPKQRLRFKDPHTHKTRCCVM

Compound | % Phosphatase Activity (compared to DMSO) PRL-1 (recombinant PRL-1; [1]) [%] | % Phosphatase Activity (compared to DMSO) PRL-2 (recombinant PRL-2; [1]) [%] | % Phosphatase Activity (compared to DMSO) PRL-3 (recombinant PRL-3; [1]) [%] | also measured
OCCN(CCO)c1nc(N2CCCCC2)c2nc(N(CCO)CCO)nc(N3CCCCC3)c2n1 [Dipyridamole] | 182 | 258 | 219 | –
CC[C@H]1OC(=O)[C@H](C)[C@@H](O[C@H]2C[C@@](C)(OC)[C@@H](O)[C@H](C)O2)[C@H](C)[C@@H](O[C@@H]2O[C@H](C)C[C@H](N(C)C)[C@H]2O)[C@](C)(O)C[C@@H](C)[C@@H]2N[C@@H](COCCOC)O[C@H]([C@H]2C)[C@]1(C)O [Dirithromycin] | 90 | 94 | 74 | –
O=C([O-])c1cc(=O)c2c(OCC(O)COc3cccc4oc(C(=O)[O-])cc(=O)c34)cccc2o1.[Na+].[Na+] [Disodium Cromoglycate] | 93 | 78 | 93 | –
CC(C)N(CCC(C(N)=O)(c1ccccc1)c1ccccn1)C(C)C (stereo not drawn) [Disopyramide Phosphate] | 94 | 107 | 93 | –
CCN(CC)C(=S)SSC(=S)N(CC)CC [Disulfiram] | 103 | 100 | 78 | –
CCCC(CCC)C(=O)O [Divalproex Sodium] | 105 | 94 | 77 | –
CC(=O)O[C@@]12CO[C@@H]1C[C@H](O)[C@@]1(C)C(=O)[C@H](O)C3=C(C)[C@@H](OC(=O)[C@H](O)[C@@H](NC(=O)OC(C)(C)C)c4ccccc4)C[C@@](O)([C@@H](OC(=O)c4ccccc4)[C@H]21)C3(C)C [Docetaxel Trihydrate] | 93 | 87 | 90 | –
CC(=O)O[C@@]12CO[C@@H]1C[C@H](O)[C@@]1(C)C(=O)[C@H](O)C3=C(C)[C@@H](OC(=O)[C@H](O)[C@@H](NC(=O)OC(C)(C)C)c4ccccc4)C[C@@](O)([C@@H](OC(=O)c4ccccc4)[C@H]21)C3(C)C [Docetaxel] | 87 | 88 | 65 | –
CCCCC(CC)COC(=O)CC(C(=O)OCC(CC)CCCC)S(=O)(=O)O (stereo not drawn) [Docusate Sodium, reference compound] | – | – | – | % Phosphatase Activity (compared to DMSO) PRL-1 (recombinant PRL-1): 64%; IC50 (recombinant PRL-1; 2.5 µM protein, DiFMUP at KM, read-out: Calculated IC50, PRL-1 phosphatase activity): 94 ± 26 µM; % Phosphatase Activity (compared to DMSO) PRL-2 (recombinant PRL-2): 63%; IC50 (recombinant PRL-2; 2.5 µM protein, DiFMUP at KM, read-out: Calculated IC50, PRL-2 phosphatase activity): 140 ± 44 µM; % Phosphatase Activity (compared to DMSO) PRL-3 (recombinant PRL-3): 34%; IC50 (recombinant PRL-3; 2.5 µM protein, DiFMUP at KM, read-out: Calculated IC50, PRL-3 phosphatase activity): 43 ± 5 µM
C[C@@H]1CCO[C@H]2Cn3cc(C(=O)NCc4ccc(F)cc4F)c(=O)c(O)c3C(=O)N12 [Dolutegravir (GSK1349572)] | 105 | 101 | 99 | –
CCCCCCCCCCCC[N+](C)(C)CCOc1ccccc1 [Domiphen Bromide] | 106 | 104 | 84 | –
O=c1[nH]c2ccccc2n1CCCN1CCC(n2c(=O)[nH]c3cc(Cl)ccc32)CC1 [Domperidone] | 118 | 112 | 79 | –
NCCc1ccc(O)c(O)c1 [Dopamine HCl] | – | – | – | % Phosphatase Activity (compared to DMSO) PRL-1 (recombinant PRL-1): 125%; % Phosphatase Activity (compared to DMSO) PRL-2 (recombinant PRL-2): 119%; % Phosphatase Activity (compared to DMSO) PRL-3 (recombinant PRL-3): 82%
C[C@@H](O)[C@H]1C(=O)N2C(C(=O)O)=C(S[C@@H]3CN[C@H](CNS(N)(=O)=O)C3)[C@H](C)[C@H]12.O [Doripenem Hydrate] | 107 | 107 | 69 | –
CC(O)C(=O)O.CN1CCN(c2ccc3nc(-c4c(N)c5c(F)cccc5[nH]c4=O)[nH]c3c2)CC1 [Dovitinib (TKI258) Lactate] | 86 | 70 | 85 | –
CC(O)C(=O)O.CC(O)C(=O)O.CN1CCN(c2ccc3nc(-c4c(N)c5c(F)cccc5[nH]c4=O)[nH]c3c2)CC1 [Dovitinib (TKI-258) Dilactic Acid] | 92 | 80 | 91 | –
CN1CCN(c2ccc3nc(-c4c(N)c5c(F)cccc5[nH]c4=O)[nH]c3c2)CC1 [Dovitinib (TKI-258, CHIR-258)] | 87 | 96 | 74 | –
CCN1CC(CCN2CCOCC2)C(c2ccccc2)(c2ccccc2)C1=O.Cl (stereo not drawn) [Doxapram HCl] | 113 | 98 | 92 | –

Compound | % Phosphatase Activity (compared to DMSO) PRL-1 (recombinant PRL-1; [1]) [%] | % Phosphatase Activity (compared to DMSO) PRL-2 (recombinant PRL-2; [1]) [%] | % Phosphatase Activity (compared to DMSO) PRL-3 (recombinant PRL-3; [1]) [%] | also measured
COc1cc2nc(N3CCN(C(=O)C4COc5ccccc5O4)CC3)nc(N)c2cc1OC (stereo not drawn) [Doxazosin Mesylate] | 441 | 528 | 305 | –
C=C1/C(=C\C=C2/CCC[C@]3(C)[C@@H]([C@H](C)/C=C/[C@H](C)C(C)C)CC[C@@H]23)C[C@@H](O)C[C@@H]1O [Doxercalciferol] | 105 | 99 | 71 | –
C[C@H]1O[C@@H](n2cc(F)c(=O)[nH]c2=O)[C@H](O)[C@@H]1O [Doxifluridine] | 91 | 103 | 98 | –
Cn1c(=O)c2c(ncn2CC2OCCO2)n(C)c1=O [Doxofylline] | 103 | 109 | 79 | –
COc1cccc2c1C(=O)c1c(O)c3c(c(O)c1C2=O)C[C@@](O)(C(=O)CO)C[C@@H]3O[C@H]1C[C@H](N)[C@H](O)[C@H](C)O1 [Doxorubicin (Adriamycin)] | 75 | 74 | 73 | –
C[C@H]1c2cccc(O)c2C(=O)C2=C(O)[C@]3(O)C(=O)C(C(N)=O)=C(O)[C@@H](N(C)C)[C@@H]3[C@@H](O)[C@@H]21 [Doxycycline HCl] | 83 | 83 | 73 | –
CN(C)CCOC(C)(c1ccccc1)c1ccccn1 (stereo not drawn) [Doxylamine Succinate] | 91 | 83 | 71 | –
CCCCc1oc2ccc(NS(C)(=O)=O)cc2c1C(=O)c1ccc(OCCCN(CCCC)CCCC)cc1 [Dronedarone HCl] | 116 | 131 | 96 | –
O=C(CCCN1CC=C(n2c(=O)[nH]c3ccccc32)CC1)c1ccc(F)cc1 [Droperidol] | 85 | 106 | 71 | –
OCC(O)CN1CCN(c2ccccc2)CC1 (stereo not drawn) [Dropropizine] | 91 | 110 | 76 | –
C[C@]12CCC(=O)C=C1[C@@H]1C[C@@H]1[C@H]1[C@@H]3[C@@H]4C[C@@H]4[C@@]4(CCC(=O)O4)[C@@]3(C)CC[C@@H]12 [Drospirenone] | 90 | 89 | 71 | –
CNCC[C@H](Oc1cccc2ccccc12)c1cccs1 [Duloxetine HCl] | – | – | – | % Phosphatase Activity (compared to DMSO) PRL-1 (recombinant PRL-1): 97%; % Phosphatase Activity (compared to DMSO) PRL-2 (recombinant PRL-2): 107%; % Phosphatase Activity (compared to DMSO) PRL-3 (recombinant PRL-3): 89%
C[C@]12C=CC(=O)N[C@@H]1CC[C@@H]1[C@@H]2CC[C@]2(C)[C@@H](C(=O)Nc3cc(C(F)(F)F)ccc3C(F)(F)F)CC[C@@H]12 [Dutasteride] | 94 | 88 | 82 | –
CCCCOc1ccc(C(=O)CCN2CCCCC2)cc1 [Dyclonine HCl] | 91 | 103 | 102 | –
CC(=O)[C@H]1CC[C@H]2[C@@H]3C=CC4=CC(=O)CC[C@@]4(C)[C@@H]3CC[C@]12C [Dydrogesterone] | 91 | 98 | 67 | –
Cn1c(=O)c2c(ncn2CC(O)CO)n(C)c1=O (stereo not drawn) [Dyphylline] | 100 | 103 | 75 | –
CCN(c1cc(-c2ccc(CN3CCOCC3)cc2)cc(C(=O)NCc2c(C)cc(C)[nH]c2=O)c1C)C1CCOCC1 [EPZ-6438] | 85 | 77 | 95 | –

— PMC8119466, “A screen of FDA-approved drugs identifies inhibitors of protein tyrosine phosphatase 4A3 (PTP4A3 or PRL-3)” (Scientific Reports, 2021)
